Tested on: bleomycin-induced lung fibrosis
Assay: Bleomycin mouse model of pulmonary fibrosis (prevention model)
Type: in vivo, C57BL/6 mice
Details: 25, 50 or 75 μg/kg daily IP, day 7 through day 21
Description: A mouse model of pulmonary fibrosis was generated by administering 0.025 U of bleomycin/PBS intratracheally to C57BL/6 mice. […] At 21 day post bleomycin delivery (for prevention model) or 28 post bleomycin delivery (for treatment model), groups of mice were sacrificed with a sodium pentobarbital injection (120 mg/kg) and the chest cavity was opened. The right mainstem bronchus was ligated and the right lung was removed. The trachea was cannulated and the left lung was perfused with 4% formaldehyde at 21 cm H2O pressure. The tissue blocks then were embedded in paraffin, and […] sections were prepared for staining. Sections from each animal were stained with hematoxylin and eosin (H&E) to visualize cells or with Masson's Trichrome staining to highlight collagen deposition. […] Stained sections were mounted onto a labeled glass slide with organic mounting medium.
Briefly, fibrotic loci in the lungs of the mice were induced by delivering intratracheally about 0.025 U of bleomycin (dissolved in PBS) to C57BL/6 mice. […] Briefly, mice were sacrificed with a sodium pentobarbital injection (120 mg/kg) and the chest cavity was opened. The right mainstem bronchus was ligated and the right lung was removed. The trachea was cannulated and the left lung was perfused with 4% formaldehyde at 21 cm H2O pressure. The tissue blocks then were embedded in paraffin, and […] sections were prepared, and stained with hematoxylin and eosin (H&E; for pathological examination) or Masson's Trichrome (for collagen staining)
Next, total collagen levels in the lungs of the bleomycin-injured mice (FIG. 12) were analyzed quantitatively by computing a constant conversion factor (7.5) for collagen from hydroxyproline concentrations (Neuman R. and Logan M, J Biol Chem., 186(2):549-56, 1950, incorporated by reference).
Next, the effect of increasing doses of MK2 peptide inhibitors on collagen deposition was examined in vivo using the bleomycin mouse model of idiopathic pulmonary fibrosis (prevention model). Briefly, C57-BL/6 mice were subjected to bleomycin injury at day 0.

With “YARAAARQARAKALNRQLGVA (Mammalian) [MMI-0200]” the “collagen levels in the lung (Masson's blue trichrome staining), dose response” value was “did not reduce, but rather increased the collagen deposition”.

Reference: patent US10500249B2, “Compositions and methods for preventing or treating diseases, conditions, or processes characterized by aberrant fibroblast proliferation and extracellular matrix deposition” (MOERAE MATRIX, INC., priority 2014, dated 2019)
